According to article PMC2825274 (PLoS ONE, 2010):
≈ marks a conversion by molar mass, not a printed value. Where “and” joins values, the source holds several entries; their conditions need not be identical. Equal values may be shown once. Entries after “also recorded” stand apart in the source; their conditions may differ. Read-outs that look alike come from different tables or passages of the source.

Experiments:
[1] = tested on: influenza A/California/04/09 (H1N1) (CA04); assay: microbe, parasite or virus in culture; format: cell-based, influenza A virus; settings: for EC50: Influenza A virus, H1N1, MDCK, 72 h
[2] = tested on: 2009 H1N1 influenza strains A/California/04/09 (CA04), A/California/05/09 (CA05) and A/California/10/09 (CA10); assay: microbe, parasite or virus in culture; format: cell-based, influenza A virus; settings: for EC50: Influenza A virus, H1N1, MDCK
[3] = tested on: influenza A/California/05/09 (H1N1) (CA05); assay: microbe, parasite or virus in culture; format: cell-based, influenza A virus; settings: for EC50: Influenza A virus, H1N1, MDCK, 72 h
[4] = tested on: A/New Caledonia/20/99 (H1N1) (NC20) susceptible; assay: microbe, parasite or virus in culture; format: cell-based, influenza A virus

Molecule	EC50 [1]	EC50 [2]	EC50 [3]	EC50 ([4]; Influenza A virus, H1N1, MDCK) [µg/mL]	inhibition of virus-induced CPE as single agent [2]	other results
NC12CC3CC(CC(C3)C1)C2 [Amantadine]	85 µM and 16 µg/mL	16 µg/mL to 20 µg/mL and 85 µM to 106 µM	106 µM and 20 µg/mL	0.22 (≈ 1.45 µM)		amantadine concentration with significant contribution to the synergy of the TCAD regimen [1]: 3.2 µg/mL; contribution to the total synergy of the TCAD regimen [1]: 39%; antiviral activity as a single agent [2]: no significant antiviral activity; fold reduction in susceptibility [2]: > 250 fold; fold reduction of single-agent activity [2]: 100 fold; amantadine concentration with significant contribution to the synergy of the TCAD regimen [3]: ≥ 0.1 µg/mL; contribution to the total synergy of the TCAD regimen [3]: 24%
CCC(CC)[C@H](NC(C)=O)[C@@H]1[C@H](O)[C@@H](C(=O)O)C[C@H]1N=C(N)N [Peramivir]					concentration-dependent inhibition of cytopathic effect	TC50 (MDCK cells): >100 µg/mL
NC(=O)c1ncn([C@@H]2O[C@H](CO)[C@@H](O)[C@H]2O)n1 [Ribavirin]	28 µM and 7 µg/mL		23 µM and 5.6 µg/mL	3.1 (≈ 12.7 µM)	concentration-dependent inhibition of cytopathic effect	
CC(N)C12CC3CC(CC(C3)C1)C2 (stereo not drawn) [Rimantadine, rimantadine]	> 51 µM and > 11 µg/mL	> 12 µg/mL and > 55 µM	> 55 µM and > 12 µg/mL		did not produce inhibition; also recorded: no activity	
CC(=O)N[C@H]1[C@H]([C@H](O)[C@H](O)CO)OC(C(=O)O)=C[C@@H]1N=C(N)N [Zanamivir]	350 nM and 0.12 µg/mL		230 nM and 0.078 µg/mL		concentration-dependent inhibition of cytopathic effect	TC50 (MDCK cells; dog): >100 µg/mL
Oseltamivir carboxylate					concentration-dependent inhibition of cytopathic effect	EC50 [4]: 0.20 µg/mL
